Laboratory results published in patent publication US9675584B2, “Substituted indoles for the inhibition of PASK” (BioEnergenix, LLC, priority 2011, dated 2017).

Molecular target: T1, hPASK (Homo sapiens, UniProt Q96RG2)
T1 construct: IC50 Kinase Domain; purchased Invitrogen
Assay: Biochemical assay for hPASK activity (PAS kinase FRET assay; IC50 kinase domain)
Conditions: PASK kinase domain
Experimental: Biochemical Assay for hPASK Activity
One assay for purified hPASK activity utilizes the Kinase-Glo Luminescent Kinase Assay (Promega), which quantifies the amount of ATP remaining in solution following kinase reaction. The assay is carried out in a 96-well plate format and is performed by adding a volume of Kinase-Glo Reagent (Promega, catalog #V3771) equal to the volume of solution in the well of a completed kinase reaction. Kinase-Glo reagent contains Luciferase and its substrate. After addition to a kinase reaction it allows to measure luminescence. The amount of ATP left in solution at the time of Kinase-Glo Plus addition is directly proportional to the luminescence that is measured in each well, and inversely correlated with kinase activity.
Purified hPASK from insect cells (0.02 μg) is added to a 50 μL reaction mix containing 40 mM HEPES (pH 7.0), 100 mM KCl, 5 mM MgCl2, 1 mM DTT and 1 μg of MBP protein. […] The luminescence is measured as soon as 10 minutes after Kinase-Glo reagent is added. […]
The aim of the FRET assay is to determine the inhibition potential of test compounds on targeted kinase. This assay platform provides a homogenous screening method for measuring kinase activity by quantitating the amount of phospho-substrate in solution following a kinase reaction. […]

T1 sequence (Q96RG2 999-1251 limits assumed): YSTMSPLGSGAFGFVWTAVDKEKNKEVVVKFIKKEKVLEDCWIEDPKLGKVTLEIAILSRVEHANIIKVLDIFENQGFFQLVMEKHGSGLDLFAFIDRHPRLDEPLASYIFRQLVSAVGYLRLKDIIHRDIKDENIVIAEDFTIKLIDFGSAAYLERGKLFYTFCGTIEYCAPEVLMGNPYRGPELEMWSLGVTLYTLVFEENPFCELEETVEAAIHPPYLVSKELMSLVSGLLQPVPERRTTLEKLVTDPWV

Row | SMILES | IC50 [µM]
1 | O=C(O)c1ccc2c(c1)cc(-c1ccc(F)cc1)n2-c1ccc(F)cc1 [Example 1, 1,2-Bis(4-fluorophenyl)-1H-indole-5-carboxylic acid] | ≤ 10
2 | O=C(O)/C=C/c1cnc(-c2ccc(F)cc2)c(-c2ccc(F)cc2)n1 [Example 2, (E)-3-(5,6-bis(4-fluorophenyl)pyrazin-2-yl)acrylic acid] | ≤ 10
